Key:
[1] = test system: HT29 SN38 resistant colon cancer cells; assay: Cell viability (MTT assay); format: cell-based; details: for cell viability, % of untreated control cells: HT29 SN38 resistant
Experimental: (§1) SN38 was applied to a SN38 sensitive colon cancer cell line (“HT29 parental”) and to a SN38 resistant colon cancer cell line (“HT29 SN38 resistant”).
(§2) The Log Concentration (μM) used are—1 for SN38. Data represents cell viability data (MTT assay) and cells were incubated with drugs for 72 hours.
The Log Concentrations (μM) used are—1 for SN38, and 1.5 for both Srpkin340 and Sphinx 31. Data represents cell viability data (MTT assay) and cells were incubated with drugs for 72 hours.

[2] = test system: HT29 parental colon cancer cells; assay: Cell viability (MTT assay); format: cell-based; details: SN38 Log Concentration (μM) -1, 72 hours
Experimental: as §1, §2

SMILES	cell viability, % of untreated control cells ([1]; SN38 0.1 μM alone, 72 hours, Example 4) [%]	cell viability, % of untreated control cells ([1]; SN38 Log Concentration (μM) -1, 72 hours, Example 3) [%]	cell viability, % of untreated control cells [2] [%]	restoration of SN38 sensitivity in SN38 resistant HT29 colon cancer cells ([1]; Log Concentration (μM) 1.5 of inhibitor with SN38 -1, 72 hours)
CCc1c2c(nc3ccc(O)cc13)-c1cc3c(c(=O)n1C2)COC(=O)[C@]3(O)CC [SN38, reference compound]	75	73	27	–
O=C(Nc1cc(C(F)(F)F)ccc1N1CCN(Cc2ccccn2)CC1)c1ccc(-c2ccncc2)o1 [Sphinx31, reference compound]	–	–	–	can restore the SN38 sensitivity
